US9006221B2, “Method of modulating ship activity” (H. Lee Moffitt Cancer Center and Reserach Institute, Inc., priority 2008, dated 2015)

System: human multiple myeloma cell lines U266, RPMI8226 and OPM2
Assay: MTT dye assay of multiple myeloma cell lines
Type: cell-based
Conditions: increasing concentrations
From the text: (A) SHIP1 expression in human multiple myeloma (MM) cell lines as presented in the western blot analysis. SHIP is expressed in the human multiple myeloma cell lines U266, RPMI8226 and OPM2. The expression in the MM cell lines is shown relative to that observed in MG63 and HS-5 cell lines. MG63 is an osteosarcoma cell line, and HS-5 is a human bone marrow stroma cell line. […] Actin is provided as a control. (B) Results of MTT dye assays of MM cell lines. […] RUO is “relative units optical”. (C) Apoptosis in OPM and RPMI cell lines at increasing concentrations of 3α-aminocholestane.

CC(C)CCC[C@@H](C)[C@H]1CC[C@H]2[C@@H]3CC[C@H]4C[C@H](N)CC[C@]4(C)[C@H]3CC[C@]12C [NSC23922, (3R,5S,8R,9S,10S,13R,14S,17R)-10,13-dimethyl-17-[(2R)-6-methylheptan-2-yl]-2,3,4,5,6,7,8,9,11,12,14,15,16,17-tetradecahydro-1H-cyclopenta[a]phenanthren-3-amine]
viability of multiple myeloma cell lines: decrease in viability
